Laboratory results taken from patent publication US12187742B2 (XRAD Therapeutics, Inc., priority 2018, dated 2025).
Where a name gives a salt, the structure may show the parent alone.

Legend:
ATM = ATM (Homo sapiens (Human), UniProt Q13315); assay: ATM in Cell Western Assay (pKAP1 in etoposide-treated MCF-7 cells); assay type: cell-based; conditions: pKAP1 in etoposide-treated MCF-7 cells
Method in brief: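 After paraformaldehyde fixation and Triton X-100 permeabilization, immunostained plates were read by infrared scanning (ODYSSEY CLx). Compound was given as 10 doses, 3-fold dilutions from a 1 μM final top concentration.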

DNA-PK = DNA-PK (Homo sapiens (Human), UniProt P78527); assay: DNA-PK Enzyme-Linked Immunosorbent Assay (phosphorylation of GST-p53 (1-101) peptide); assay type: biochemical; conditions: ELISA, 20 μM ATP
Method in brief: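 Inhibition measured by 450 nm absorbance after HRP/TMB detection of phospho-Ser15 on immobilized GST-p53 (1-101). The kinase reaction used 0.1 μg/mL DNA-PK and 20 μM ATP, 1 h at 25 °C. Ten 3-fold compound dilutions, top final concentration 100 nM.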

Sequence of ATM (Q13315 whole entry): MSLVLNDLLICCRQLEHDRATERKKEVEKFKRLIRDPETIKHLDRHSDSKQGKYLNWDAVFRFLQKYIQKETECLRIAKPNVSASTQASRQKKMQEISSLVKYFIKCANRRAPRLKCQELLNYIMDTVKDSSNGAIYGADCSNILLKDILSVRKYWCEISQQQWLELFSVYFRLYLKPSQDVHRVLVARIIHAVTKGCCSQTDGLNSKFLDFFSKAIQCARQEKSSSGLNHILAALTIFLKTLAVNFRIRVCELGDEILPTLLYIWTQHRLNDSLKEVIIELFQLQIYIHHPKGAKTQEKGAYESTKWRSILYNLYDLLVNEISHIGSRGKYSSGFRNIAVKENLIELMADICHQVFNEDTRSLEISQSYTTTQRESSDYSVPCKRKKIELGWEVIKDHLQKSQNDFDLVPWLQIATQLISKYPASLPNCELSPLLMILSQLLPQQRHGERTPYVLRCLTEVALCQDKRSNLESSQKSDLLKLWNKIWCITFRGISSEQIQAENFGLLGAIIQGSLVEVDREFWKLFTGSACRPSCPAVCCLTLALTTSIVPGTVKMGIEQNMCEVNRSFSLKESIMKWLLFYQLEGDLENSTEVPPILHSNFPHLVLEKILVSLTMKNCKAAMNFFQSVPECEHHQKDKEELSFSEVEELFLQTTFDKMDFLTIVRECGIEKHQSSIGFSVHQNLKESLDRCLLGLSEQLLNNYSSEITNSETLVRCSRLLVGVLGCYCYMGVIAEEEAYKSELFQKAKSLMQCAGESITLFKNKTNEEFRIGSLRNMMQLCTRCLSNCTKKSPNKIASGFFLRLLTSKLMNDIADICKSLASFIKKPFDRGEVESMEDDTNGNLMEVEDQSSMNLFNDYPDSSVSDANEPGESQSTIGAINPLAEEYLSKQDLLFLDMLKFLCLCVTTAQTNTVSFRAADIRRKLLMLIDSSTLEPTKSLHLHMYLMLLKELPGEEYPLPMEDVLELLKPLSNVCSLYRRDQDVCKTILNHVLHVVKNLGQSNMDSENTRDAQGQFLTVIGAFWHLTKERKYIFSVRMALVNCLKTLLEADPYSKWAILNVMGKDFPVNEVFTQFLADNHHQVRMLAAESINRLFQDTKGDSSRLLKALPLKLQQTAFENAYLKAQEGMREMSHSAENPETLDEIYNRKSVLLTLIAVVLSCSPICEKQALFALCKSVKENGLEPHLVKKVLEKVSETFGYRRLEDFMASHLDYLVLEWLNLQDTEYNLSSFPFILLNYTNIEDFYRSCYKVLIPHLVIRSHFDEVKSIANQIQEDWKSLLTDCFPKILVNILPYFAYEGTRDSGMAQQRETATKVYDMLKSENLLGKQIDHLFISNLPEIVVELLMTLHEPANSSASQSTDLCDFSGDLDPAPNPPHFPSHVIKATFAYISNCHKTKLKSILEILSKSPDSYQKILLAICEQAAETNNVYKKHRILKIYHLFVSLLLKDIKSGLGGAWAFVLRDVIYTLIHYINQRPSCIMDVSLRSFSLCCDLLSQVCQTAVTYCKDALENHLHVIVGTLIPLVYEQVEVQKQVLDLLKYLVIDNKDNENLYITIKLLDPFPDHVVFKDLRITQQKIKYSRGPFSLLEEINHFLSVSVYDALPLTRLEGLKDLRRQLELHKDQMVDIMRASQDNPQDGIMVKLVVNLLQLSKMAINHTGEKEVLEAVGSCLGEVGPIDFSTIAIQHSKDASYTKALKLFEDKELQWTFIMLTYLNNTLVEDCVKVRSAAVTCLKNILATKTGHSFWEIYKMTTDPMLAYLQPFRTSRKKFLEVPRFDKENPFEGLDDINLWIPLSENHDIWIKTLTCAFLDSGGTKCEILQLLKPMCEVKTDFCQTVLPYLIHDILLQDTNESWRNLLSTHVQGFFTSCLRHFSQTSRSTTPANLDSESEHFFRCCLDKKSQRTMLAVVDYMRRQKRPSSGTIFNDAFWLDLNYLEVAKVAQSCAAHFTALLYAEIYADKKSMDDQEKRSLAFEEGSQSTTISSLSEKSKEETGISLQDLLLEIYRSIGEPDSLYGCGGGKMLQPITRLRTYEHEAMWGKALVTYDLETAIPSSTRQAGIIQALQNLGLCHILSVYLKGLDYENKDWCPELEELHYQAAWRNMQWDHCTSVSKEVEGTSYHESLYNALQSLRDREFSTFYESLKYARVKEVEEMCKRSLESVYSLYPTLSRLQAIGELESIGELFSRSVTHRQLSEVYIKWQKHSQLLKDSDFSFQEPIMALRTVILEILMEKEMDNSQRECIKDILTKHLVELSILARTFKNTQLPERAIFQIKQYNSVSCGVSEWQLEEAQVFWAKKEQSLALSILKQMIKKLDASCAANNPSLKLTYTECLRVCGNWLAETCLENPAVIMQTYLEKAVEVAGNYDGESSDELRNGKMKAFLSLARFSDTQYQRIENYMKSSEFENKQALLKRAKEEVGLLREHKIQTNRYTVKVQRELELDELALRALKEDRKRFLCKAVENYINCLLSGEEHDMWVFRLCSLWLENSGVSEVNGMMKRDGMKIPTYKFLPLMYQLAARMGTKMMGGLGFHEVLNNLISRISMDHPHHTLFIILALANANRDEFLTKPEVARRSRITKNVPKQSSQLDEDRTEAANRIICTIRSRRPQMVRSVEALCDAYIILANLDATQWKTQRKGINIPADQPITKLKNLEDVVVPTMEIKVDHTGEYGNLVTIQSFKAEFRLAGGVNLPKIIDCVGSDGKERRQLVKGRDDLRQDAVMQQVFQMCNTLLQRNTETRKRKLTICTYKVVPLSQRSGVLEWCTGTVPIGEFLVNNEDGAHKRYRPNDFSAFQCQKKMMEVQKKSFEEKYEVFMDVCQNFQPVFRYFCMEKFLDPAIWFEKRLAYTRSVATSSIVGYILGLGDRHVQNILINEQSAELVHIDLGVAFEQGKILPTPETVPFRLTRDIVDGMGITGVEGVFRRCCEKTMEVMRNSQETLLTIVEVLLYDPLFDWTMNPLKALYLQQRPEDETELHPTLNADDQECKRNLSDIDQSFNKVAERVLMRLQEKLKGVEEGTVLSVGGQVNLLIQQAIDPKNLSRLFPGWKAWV

Row | Structure (SMILES) | IC50 (ATM) | IC50 (DNA-PK)
1 | CC(C)NCCOc1ncc(-c2cc3c(cc2F)ncc2c3[C@]3(C[C@H](N(C)c4ccccc4)C3)C(=O)N2C)cc1NS(C)(=O)=O [Example 463, cis-N-(5-(7′-Fluoro-3′-methyl-3-(methyl(phenyl)amino)-2′-oxo-2′,3′-dihydrospiro[cyclobutane-1,1′-pyrrolo[2,3-c]quinolin]-8′-yl)-2-(2-(isopropylamino)ethoxy)pyridin-3-yl)methanesulfonamide] | 1 to 100 nM | < 0.5 nM
2 | CN(C)CCCOc1ncc(-c2ccc3ncc4c(c3c2)C2(CN(C)C2)C(=O)N4C)cc1NS(C)(=O)=O [Example 478, N-(5-(1,3′-Dimethyl-2′-oxo-2′,3′-dihydrospiro[azetidine-3,1′-pyrrolo[2,3-c]quinolin]-8′-yl)-2-(3-(dimethylamino)propoxy)pyridin-3-yl)methanesulfonamide] | 1 to 100 nM | 1 to 100 nM
3 | CCS(=O)(=O)Nc1cc(-c2cc3c4c(cnc3cc2F)N(C)C(=O)C42CN(C(C)C)C2)cnc1OCCNC(C)C [Example 483] | 1 to 100 nM | 0.5 to 1 nM
4 | CC(C)NCCOc1ncc(-c2cc3c4c(cnc3cc2F)N(C)C(=O)C42CN(C(C)C)C2)cc1NS(=O)(=O)C1CC1 [Example 484, N-(5-(7′-Fluoro-1-isopropyl-3′-methyl-2′-oxo-2′,3′-dihydrospiro[azetidine-3,1′-pyrrolo[2,3-c]quinolin]-8′-yl)-2-(2-(isopropylamino)ethoxy)pyridin-3-yl)cyclopropanesulfonamide] | 1 to 100 nM | 1 to 100 nM
5 | CC(C)NCCOc1ncc(-c2cc3c4c(cnc3cc2F)N(C)C(=O)C42CN(C(C)C)C2)cc1NS(=O)(=O)C(C)C [Example 485, N-(5-(7′-Fluoro-1-isopropyl-3′-methyl-2′-oxo-2′,3′-dihydrospiro[azetidine-3,1′-pyrrolo[2,3-c]quinolin]-8′-yl)-2-(2-(isopropylamino)ethoxy)pyridin-3-yl)propane-2-sulfonamide] | 1 to 100 nM | 1 to 100 nM
6 | CC(C)N1CC2(C1)C(=O)N(C)c1cnc3cc(F)c(-c4cnc(N5CCC(N6CCCCC6)CC5)c(NS(C)(=O)=O)c4)cc3c12 [Example 486] | 1 to 100 nM | 1 to 100 nM
7 | CC(C)NCCOc1ncc(-c2cc3c4c(cnc3cc2F)N(C)C(=O)C42CN(C3CCC3)C2)cc1NS(C)(=O)=O [Example 497, N-(5-(1-Cyclobutyl-7′-fluoro-3′-methyl-2′-oxo-2′,3′-dihydrospiro[azetidine-3,1′-pyrrolo[2,3-c]quinolin]-8′-yl)-2-(2-(isopropylamino)ethoxy)pyridin-3-yl)methanesulfonamide hydrochloride] | 1 to 100 nM | 1 to 100 nM
8 | CC(C)NCCOc1ncc(-c2cc3c4c(cnc3cc2F)N(C)C(=O)C42CN(C3CCCC3)C2)cc1NS(C)(=O)=O [Example 498, N-(5-(1-Cyclopentyl-7′-fluoro-3′-methyl-2′-oxo-2′,3′-dihydrospiro[azetidine-3,1′-pyrrolo[2,3-c]quinolin]-8′-yl)-2-(2-(isopropylamino)ethoxy)pyridin-3-yl)methanesulfonamide] | 1 to 100 nM | 0.5 to 1 nM
9 | CC(C)NCCOc1ncc(-c2cc3c4c(cnc3cc2F)N(C)C(=O)C42CN(c3ccccc3)C2)cc1NS(C)(=O)=O [Example 519, N-(5-(7′-Fluoro-3′-methyl-2′-oxo-1-phenyl-2′,3′-dihydrospiro[azetidine-3,1′-pyrrolo[2,3-c]quinolin]-8′-yl)-2-(2-(isopropylamino)ethoxy)pyridin-3-yl)methanesulfonamide hydrochloride] | 1 to 100 nM | < 0.5 nM
10 | Cc1ncc(S(=O)(=O)Nc2cc(-c3cc4c5c(cnc4cc3F)N(C)C(=O)C53CN(c4ccccc4)C3)cnc2OCCNC(C)C)s1 [Example 520, N-(5-(7′-Fluoro-3′-methyl-2′-oxo-1-phenyl-2′,3′-dihydrospiro[azetidine-3,1′-pyrrolo[2,3-c]quinolin]-8′-yl)-2-(2-(isopropylamino)ethoxy)pyridin-3-yl)-2-methylthiazole-5-sulfonamide] | 1 to 100 nM | 1 to 100 nM

Other lines, results leading:

Row | IC50 (ATM) | IC50 (DNA-PK) | Structure (SMILES)
11 | 1 to 100 nM | < 0.5 nM | CC(C)NCCOc1ncc(-c2cc3c4c(cnc3cc2F)N(C)C(=O)C42CC(C)(C)C2)cc1NS(C)(=O)=O [Example 446, N-(5-(7′-Fluoro-3,3,3′-trimethyl-2′-oxo-2′,3′-dihydrospiro[cyclobutane-1,1′-pyrrolo[2,3-c]quinolin]-8′-yl)-2-(2-(isopropylamino)ethoxy)pyridin-3-yl)methanesulfonamide]
12 | 1 to 100 nM | 1 to 100 nM | CC(C)NCCOc1ncc(-c2cc3c(cc2F)ncc2c3[C@]3(C[C@H](C)C3)C(=O)N2C)cc1NS(C)(=O)=O [Example 448, cis-N-(5-(7′-Fluoro-3,3′-dimethyl-2′-oxo-2′,3′-dihydrospiro[cyclobutane-1,1′-pyrrolo[2,3-c]quinolin]-8′-yl)-2-(2-(isopropylamino)ethoxy)pyridin-3-yl)methanesulfonamide]
13 | 1 to 100 nM | 1 to 100 nM | CC(C)NCCOc1ncc(-c2cc3c(cc2F)ncc2c3[C@]3(C[C@H](Cc4ccccc4)C3)C(=O)N2C)cc1NS(C)(=O)=O [Example 451, cis-N-(5-(3-Benzyl-7′-fluoro-3′-methyl-2′-oxo-2′,3′-dihydrospiro[cyclobutane-1,1′-pyrrolo[2,3-c]quinolin]-8′-yl)-2-(2-(isopropylamino)ethoxy)pyridin-3-yl)methanesulfonamide]
14 | 1 to 100 nM | 1 to 100 nM | CC(C)NCCOc1ncc(-c2cc3c(cc2F)ncc2c3[C@]3(C[C@H](C(C)(C)O)C3)C(=O)N2C)cc1NS(C)(=O)=O [Example 456, cis-N-(5-(7′-Fluoro-3-(2-hydroxypropan-2-yl)-3′-methyl-2′-oxo-2′,3′-dihydrospiro[cyclobutane-1,1′-pyrrolo[2,3-c]quinolin]-8′-yl)-2-(2-(isopropylamino)ethoxy)pyridin-3-yl)methanesulfonamide]
15 | 1 to 100 nM | 0.5 to 1 nM | CC(C)NCCOc1ncc(-c2cc3c(cc2F)ncc2c3[C@]3(C[C@H](Nc4ccccc4)C3)C(=O)N2C)cc1NS(C)(=O)=O [Example 459, cis-N-(5-(7′-Fluoro-3′-methyl-2′-oxo-3-(phenylamino)-2′,3′-dihydrospiro[cyclobutane-1,1′-pyrrolo[2,3-c]quinolin]-8′-yl)-2-(2-(isopropylamino)ethoxy)pyridin-3-yl)methanesulfonamide]
16 | 1 to 100 nM | 1 to 100 nM | CC(C)NCCOc1ncc(-c2cc3c(cc2F)ncc2c3[C@]3(C[C@@H](Nc4ccccc4)C3)C(=O)N2C)cc1NS(C)(=O)=O [Example 460, trans-N-(5-(7′-Fluoro-3′-methyl-2′-oxo-3-(phenylamino)-2′,3′-dihydrospiro[cyclobutane-1,1′-pyrrolo[2,3-c]quinolin]-8′-yl)-2-(2-(isopropylamino)ethoxy)pyridin-3-yl)methanesulfonamide hydrochloride]
17 | 1 to 100 nM | 1 to 100 nM | CC(C)NCCOc1ncc(-c2cc3c(cc2F)ncc2c3[C@]3(C[C@H](Nc4ccc(Cl)cc4)C3)C(=O)N2C)cc1NS(C)(=O)=O [Example 461, cis-N-(5-(3-((4-Chlorophenyl)amino)-7′-fluoro-3′-methyl-2′-oxo-2′,3′-dihydrospiro[cyclobutane-1,1′-pyrrolo[2,3-c]quinolin]-8′-yl)-2-(2-(isopropylamino)ethoxy)pyridin-3-yl)methanesulfonamide]
